Among the test systems are EKVX NSCLC; HOP-62 NSCLC; HOP-92 NSCLC; KM12 colon; SF-539 CNS; SN12C renal; SNB-75 CNS; UACC-257 melanoma; UO-31 renal; MDA-MB-231 breast.
Experiment in all cases: NCI anticancer screen, dose series, 48 h

“And” between values parts separate entries of the source, which are not always exact repeats. Equal entries are not always repeated.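 Method: 48-hour compound exposure of cells in 96-well plates, five concentrations, linear interpolation of endpoints. Abbreviation: GI50, concentration required for 50% inhibition of growth. TGI: concentration producing complete growth inhibition.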 Bounds are passed on as bounds.

Turning to `CC1CCC2c3c([nH]c4ccccc34)C3C(=O)N(c4ccccc4)C(=O)C3C2C1` (stereo not given), the TGI was greater than 250 µM with EKVX NSCLC; 92 µM in the assay on HOP-62 NSCLC; 56.8 µM in the assay with HOP-92 NSCLC; greater than 250 µM with KM12 colon; 27.6 µM and > 250 µM with SF-539 CNS; greater than 250 µM in the assay with SN12C renal. For the same compound, the TGI in the assay on UACC-257 melanoma and in the assay on UO-31 renal was greater than 250 µM each time. Moreover, the GI50 in the assay on SF-539 CNS was 34 µM; with SNB-75 CNS it was 12.1 µM; in the assay with UO-31 renal, 117 µM.

For `O=S(=O)(Cc1ccccc1)SCc1ccccc1`, the TGI in the assay on EKVX NSCLC was greater than 100 µM; in the assay on HOP-62 NSCLC it was greater than 100 µM; in the assay with HOP-92 NSCLC, 51.2 µM; with KM12 colon it was greater than 100 µM; in the assay on SF-539 CNS, 37.8 µM; in the assay with SN12C renal, 58 µM. Also, the results for the TGI with SNB-75 CNS, in the assay on UACC-257 melanoma and in the assay on UO-31 renal were greater than 100 µM, 76 µM and greater than 100 µM, respectively.

Take `CC1=C(C(=O)CC(=O)C(=O)Nc2ccccc2C)Sc2ccccc2N1`: the TGI with EKVX NSCLC, in the assay with HOP-62 NSCLC, with HOP-92 NSCLC, in the assay on KM12 colon, with SF-539 CNS and with SN12C renal was greater than 100 µM each time. The TGI in the assay on SNB-75 CNS, in the assay with UACC-257 melanoma and with UO-31 renal was greater than 100 µM throughout.

Consider `O=C(Nc1ccc(Br)cc1)Nc1cccc(Br)c1`, for which the GI50 was 7.24 µM with HOP-62 NSCLC; 30.5 µM in the assay on MDA-MB-231 breast; 15.3 µM in the assay with SF-539 CNS; 71.8 µM with SN12C renal; 10.2 µM in the assay on SNB-75 CNS; greater than 100 µM in the assay with UACC-257 melanoma. Also, the TGI in the assay on HOP-62 NSCLC was greater than 100 µM; with MDA-MB-231 breast, greater than 100 µM; in the assay on SF-539 CNS, greater than 100 µM; in the assay on SN12C renal, greater than 100 µM; with SNB-75 CNS it was 63 µM; in the assay on UACC-257 melanoma, greater than 100 µM.

`O=C(O)C1=C(C(=O)O)Oc2ccccc2O1`: the TGI in the assay with EKVX NSCLC, with HOP-62 NSCLC, with HOP-92 NSCLC, in the assay on KM12 colon, in the assay with SF-539 CNS and with SN12C renal was greater than 100 µM each time. Also, the TGI with SNB-75 CNS, in the assay on UACC-257 melanoma and with UO-31 renal was greater than 100 µM in each case.

In the case of `C/C(CC(=O)Nc1cccc(Cl)c1C)=N\N=C(N)N`, the TGI with EKVX NSCLC, in the assay with HOP-62 NSCLC, in the assay with HOP-92 NSCLC, with KM12 colon, in the assay on SF-539 CNS and in the assay on SN12C renal was greater than 100 µM in each case. The TGI in the assay on SNB-75 CNS, with UACC-257 melanoma and in the assay on UO-31 renal was greater than 100 µM in each case.

`NNC(=O)N/N=C1\CNC(=O)C(=O)C1c1nc2ccccc2s1` (stereo not given): the TGI in the assay with EKVX NSCLC, with HOP-62 NSCLC, with HOP-92 NSCLC, in the assay on KM12 colon, with SF-539 CNS and in the assay on SN12C renal was greater than 100 µM in each case. For the same compound, the TGI in the assay with SNB-75 CNS, in the assay with UACC-257 melanoma and in the assay with UO-31 renal was greater than 100 µM throughout.

In the case of `CN(C)CCNC(=O)c1cccc2cc3ccc4ccccc4c3nc12`, the TGI with EKVX NSCLC came to 0.495 µM; in the assay on HOP-62 NSCLC it was 0.309 µM; with HOP-92 NSCLC, 0.593 µM; with KM12 colon, 1.2 µM; with SF-539 CNS, 0.39 µM; in the assay on SN12C renal, 0.818 µM. Also, the TGI in the assay on SNB-75 CNS was determined as 0.399 µM; in the assay with UACC-257 melanoma, 0.535 µM; with UO-31 renal, 0.218 µM.

Consider `Nc1nc(-c2ccccc2)cc(-c2cc(Cl)ccc2O)n1`, for which the TGI in the assay on EKVX NSCLC was greater than 100 µM; in the assay with HOP-62 NSCLC, 85.5 µM; in the assay with HOP-92 NSCLC it was greater than 100 µM; in the assay on KM12 colon it was greater than 100 µM; in the assay on SF-539 CNS it was greater than 100 µM; in the assay with SN12C renal, greater than 100 µM. In addition, the TGI was 69 µM in the assay with SNB-75 CNS, greater than 100 µM with UACC-257 melanoma and greater than 100 µM with UO-31 renal.

As for `O=C1c2ccoc2C(=O)c2oc(=O)ccc21`, the TGI is 35.2 µM in the assay on EKVX NSCLC; greater than 61.1 µM in the assay on HOP-62 NSCLC; 39.8 µM with HOP-92 NSCLC; greater than 57.7 µM with KM12 colon; 8.31 µM with SF-539 CNS; 24.2 µM in the assay with SN12C renal. Moreover, the TGI with SNB-75 CNS was found to be 15.6 µM; with UACC-257 melanoma, 20.8 µM; in the assay on UO-31 renal, 14.9 µM.

Take `CC(C)=CC(=O)CC(=O)C(=O)NCCNC(=O)C(=O)CC(=O)C=C(C)C`: the TGI in the assay with EKVX NSCLC, in the assay on HOP-62 NSCLC, with HOP-92 NSCLC, in the assay with KM12 colon, with SF-539 CNS and in the assay with SN12C renal was greater than 50 µM in each case. The TGI in the assay on SNB-75 CNS, in the assay with UACC-257 melanoma and in the assay on UO-31 renal was greater than 50 µM each time.

`c1ccc2c(c1)[O][Sn][O]2`: the GI50 is greater than 150 µg/mL in the assay with EKVX NSCLC; 36.1 µg/mL with HOP-62 NSCLC; 64.8 µg/mL with HOP-92 NSCLC; 21.8 µg/mL in the assay with KM12 colon; 26.2 µg/mL in the assay on SF-539 CNS; 41.8 µg/mL in the assay on SN12C renal. For the same compound, the figures for the GI50 in the assay on SNB-75 CNS, in the assay with UACC-257 melanoma and with UO-31 renal were 100 µg/mL, greater than 150 µg/mL and 12.6 µg/mL, respectively. In addition, the TGI in the assay on EKVX NSCLC, with HOP-62 NSCLC, in the assay with HOP-92 NSCLC, in the assay on KM12 colon, with SF-539 CNS and in the assay on SN12C renal was greater than 150 µg/mL each time. In addition, the TGI in the assay on SNB-75 CNS, in the assay with UACC-257 melanoma and in the assay with UO-31 renal was greater than 150 µg/mL each time.

On to `NC(=O)C(=O)Cc1nc2ccccc2s1`, for which the TGI with EKVX NSCLC, in the assay on HOP-62 NSCLC, in the assay on HOP-92 NSCLC, in the assay with KM12 colon, in the assay with SF-539 CNS and in the assay with SN12C renal was greater than 100 µM in each case. Besides, the TGI in the assay on SNB-75 CNS, in the assay on UACC-257 melanoma and in the assay with UO-31 renal was greater than 100 µM in each case.

Turning to `COc1ccc2nc(-c3ccc(O)cc3)ccc2c1`, the TGI with EKVX NSCLC, with HOP-62 NSCLC, in the assay with HOP-92 NSCLC, in the assay with KM12 colon, with SF-539 CNS and in the assay with SN12C renal was greater than 100 µM in each case. Also, the TGI in the assay on SNB-75 CNS, with UACC-257 melanoma and with UO-31 renal was greater than 100 µM in each case.

Regarding `Cn1cc(NC(=O)c2cc(NC(=O)CCCCCCCC(=O)Nc3cc(C(=O)Nc4cc(C(=O)NCCC(=N)N)n(C)c4)n(C)c3)cn2C)cc1C(=O)NCCC(=N)N`, the TGI was 68.2 µM in the assay with EKVX NSCLC; greater than 100 µM with HOP-62 NSCLC; greater than 100 µM in the assay with HOP-92 NSCLC; 20 µM in the assay on KM12 colon; 33.1 µM with SF-539 CNS; 41 µM with SN12C renal. The TGI with SNB-75 CNS was 70.8 µM; in the assay with UACC-257 melanoma, 23.8 µM; in the assay with UO-31 renal it was greater than 100 µM.

For `Cc1nn2c(-c3nc4cc(Cl)c(Cl)cc4[nH]3)c(-c3ccc(F)cc3)nc2s1`, the GI50 in the assay on HOP-62 NSCLC was 1.93 µM; in the assay on MDA-MB-231 breast, 1.25 µM; with SF-539 CNS it was 2.53 µM; in the assay on SN12C renal, 7.92 µM; in the assay with SNB-75 CNS it was 1.56 µM; in the assay with UACC-257 melanoma, 8.16 µM. Further, the GI50 with UO-31 renal was 1.64 µM. Further, the TGI in the assay on HOP-62 NSCLC was 7.26 µM; in the assay with MDA-MB-231 breast, 3.74 µM; with SF-539 CNS, 11.1 µM; with SN12C renal, greater than 100 µM; with SNB-75 CNS it was 3.71 µM; in the assay on UACC-257 melanoma, greater than 100 µM. Also, in the assay on UO-31 renal, the TGI was determined as 3.93 µM.

As to `CN(C)CCS(=O)(=O)Nc1cc(-c2ccc3ncnc(Nc4ccc(F)c(Cl)c4)c3c2)cnc1Cl`, the GI50 with HOP-62 NSCLC was 0.473 µM; in the assay with HOP-92 NSCLC, 0.0757 µM; in the assay with KM12 colon, 1.46 µM; in the assay on MDA-MB-231 breast it was 0.37 µM; in the assay with SN12C renal, 0.624 µM; with SNB-75 CNS, 0.282 µM. The values for the GI50 in the assay on UACC-257 melanoma and with UO-31 renal were 0.775 µM and 0.259 µM, respectively. Also, the TGI in the assay with HOP-62 NSCLC was greater than 100 µM; with HOP-92 NSCLC, 0.513 µM; with KM12 colon it was 4.25 µM; with MDA-MB-231 breast, 1.8 µM; in the assay on SN12C renal, greater than 100 µM; with SNB-75 CNS it was greater than 100 µM. Further, the results for the TGI with UACC-257 melanoma and with UO-31 renal were 6.81 µM and 1.69 µM, respectively.

For `O=C(O)Cn1ccc(=O)c2c([N+](=O)[O-])cccc21`, the TGI in the assay on HOP-62 NSCLC, in the assay on KM12 colon, in the assay on MDA-MB-231 breast, in the assay on SF-539 CNS, in the assay with SN12C renal and in the assay with SNB-75 CNS was greater than 100 µM throughout. Further, the TGI in the assay on UACC-257 melanoma and in the assay with UO-31 renal was greater than 100 µM in each case.

In the case of `Nc1c(C(=O)Nc2ccccc2O)[n+]([O-])c2ccccc2[n+]1[O-]`, the TGI with EKVX NSCLC, in the assay with HOP-62 NSCLC, in the assay on HOP-92 NSCLC, in the assay with KM12 colon, with SF-539 CNS and with SN12C renal was greater than 100 µM throughout. Moreover, the TGI was greater than 100 µM in the assay with SNB-75 CNS, 44.6 µM in the assay with UACC-257 melanoma and greater than 100 µM in the assay with UO-31 renal.

As for `O=c1c2cccc3cccc(c4n1CCCN=4)c32`, the TGI with EKVX NSCLC, in the assay with HOP-62 NSCLC, in the assay on HOP-92 NSCLC, in the assay with KM12 colon, with SF-539 CNS and in the assay with SN12C renal was greater than 100 µM in each case. For the same compound, the TGI in the assay with SNB-75 CNS, in the assay with UACC-257 melanoma and in the assay with UO-31 renal was greater than 100 µM in each case.
